Reference: US12617769B2, “Chemical compound as thyroid hormone beta receptor agonist and use thereof” (SUNSHINE LAKE PHARMA CO., LTD., priority 2019, dated 2026)

Tests used:
TRβ = molecular target: T1, TRβ (Homo sapiens, UniProt P10828); test: In vitro binding activity, LanthaScreen TR-FRET Thyroid Receptor beta Coactivator Assay; settings: TRβ-LBD
T1 construct: Then 5 μL of 4×TRα-LBD or TRP-LBD; purchased Invitrogen PV4686
T1 sequence (P10828 217-461 limits assumed): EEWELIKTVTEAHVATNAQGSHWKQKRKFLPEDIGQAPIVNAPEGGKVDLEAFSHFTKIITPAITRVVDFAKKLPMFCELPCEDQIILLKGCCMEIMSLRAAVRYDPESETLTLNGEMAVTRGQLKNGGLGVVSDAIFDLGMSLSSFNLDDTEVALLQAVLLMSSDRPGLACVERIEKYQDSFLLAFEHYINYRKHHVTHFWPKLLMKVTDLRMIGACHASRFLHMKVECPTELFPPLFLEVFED
Protocol: (§1) 2. Detection of TRα or TRβ Binding Activity In Vitro of the Compound of the Present Invention
(§2) • LanthaScreen TR-FRET Thyroid Receptor beta Coactivator Assay kit was purchased from Invitrogen, Cat. No. PV4686; • LanthaScreen TR-FRET Thyroid Receptor alfa Coactivator Assay kit was purchased from Invitrogen, Cat. No. PV4687. Test Method:
(§3) This method was tested using LanthaScreen TR-FRET Thyroid Receptor beta/alfa Coactivator Assay kit. The test compound was dissolved in DMSO and diluted three-fold to obtain a total of 10 concentrations, then the compounds were diluted into solutions containing 2% DMSO with TR-FRET Coregulator Buffer C in the kit. 10 μL of the compounds containing 2% DMSO were taken to a 384-well plate. Then 5 μL of 4×TRα-LBD or TRP-LBD and 5 μL of a mixture containing 0.4 μM fluorescein-SRC2-2 and 8 nM Tb anti-GST antibody were added to each well. After mixing well, the compounds were incubated at room temperature in the dark for 1 h. After 1 h, the fluorescence value (RFU) was read at 520 nm and 495 nm using PHERAstar FSX microplate reader from BMG LABTECH. The emission signal at 520 nm was divided by the emission signal at 495 nm to calculate the TR-FRET ratio.

TRα = molecular target: T2, TRα (Homo sapiens, UniProt P10827); test: In vitro binding activity, LanthaScreen TR-FRET Thyroid Receptor alfa Coactivator Assay; settings: TRα-LBD
T2 construct: Then 5 μL of 4×TRα-LBD or TRP-LBD; purchased Invitrogen PV4687
Protocol: as §1, §2, §3

T2 sequence (P10827 163-410 isoform P10827-2 limits assumed, other chains not shown): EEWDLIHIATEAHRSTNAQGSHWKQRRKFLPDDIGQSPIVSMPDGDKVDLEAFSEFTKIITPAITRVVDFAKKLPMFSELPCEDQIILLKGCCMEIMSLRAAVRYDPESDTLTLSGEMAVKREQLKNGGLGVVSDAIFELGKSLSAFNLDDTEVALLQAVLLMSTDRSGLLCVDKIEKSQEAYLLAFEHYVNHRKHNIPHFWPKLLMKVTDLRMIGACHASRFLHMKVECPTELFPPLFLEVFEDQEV

Row | EC50 (TRβ) | EC50 (TRα) | SMILES
1 | 60 nM | 3030 nM | N#Cc1nn(-c2cc(Cl)c(Oc3ccc(=O)n(Cc4ccccc4)c3)c(Cl)c2)c(=O)[nH]c1=O [Example 1, 2-[4-[(1-benzyl-6-oxo-1,6-dihydropyridin-3-yl)oxy]-3,5-dichlorophenyl]-3,5-dioxo-1,2,4-triazine-6-carbonitrile]
2 | > 10000 nM | > 100000 nM | N#Cc1nn(-c2cc(Cl)c(Oc3ccc(=O)n(Cc4ccccc4)n3)c(Cl)c2)c(=O)[nH]c1=O [Example 2, 2-[4-(1-benzyl-6-oxo-1,6-dihydropyridazin-3-yl)oxy-3,5-dichlorophenyl]-3,5-dioxo-1,2,4-triazine-6-carbonitrile]
3 | 500 nM | > 100000 nM | CC(C)n1cc(Oc2c(Cl)cc(-n3nc(C#N)c(=O)[nH]c3=O)cc2Cl)ccc1=O [Example 4, 2-[3,5-dichloro-4-[(1-isopropyl-6-oxo-1,6-dihydropyridin-3-yl)oxy]phenyl]-3,5-dioxo-1,2,4-triazine-6-carbonitrile]
4 | > 10000 nM | > 100000 nM | N#Cc1nn(-c2cc(Cl)c(Oc3ccc(=O)n(-c4ccc(F)cc4)n3)c(Cl)c2)c(=O)[nH]c1=O [Example 8, 2-[3,5-dichloro-4-[1-(4-fluorophenyl)-6-oxo-1,6-dihydropyridazin-3-yl]oxy-phenyl]-3,5-dioxo-1,2,4-triazine-6-carbonitrile]
5 | > 10000 nM | > 100000 nM | CC(c1ccccc1)n1nc(Oc2c(Cl)cc(-n3nc(C#N)c(=O)[nH]c3=O)cc2Cl)ccc1=O (centres unmarked) [Example 9, 2-[3,5-dichloro-4-[[6-oxo-1-(1-phenethyl)-1,6-dihydropyridazin-3-yl]oxyl]phenyl]-3,5-dioxo-1,2,4-triazine-6-carbonitrile]
6 | > 10000 nM | > 100000 nM | N#Cc1nn(-c2cc(Cl)c(Oc3cnc(=O)n(Cc4ccccc4)c3)c(Cl)c2)c(=O)[nH]c1=O [Example 10, 2-[4-(1-benzyl-2-oxo-1,2-dihydropyrimidin-5-yl)oxy-3,5-dichlorophenyl]-3,5-dioxo-1,2,4-triazine-6-carbonitrile]
7 | 22 nM | 670 nM | N#Cc1nn(-c2cc(Cl)c(Oc3ccc(=O)n(Cc4ccc(F)c(F)c4)c3)c(Cl)c2)c(=O)[nH]c1=O [Example 11, 2-[3,5-dichloro-4-[[1-(3,4-difluorobenzyl)-6-oxo-1,6-dihydropyridin-3-yl]oxy]phenyl]-3,5-dioxo-1,2,4-triazine-6-carbonitrile]
8 | 1340 nM | > 100000 nM | N#Cc1nn(-c2cc(Cl)c(Oc3ccc(=O)n(Cc4ccc(OC(F)(F)F)cc4)c3)c(Cl)c2)c(=O)[nH]c1=O [Example 12, 2-[3,5-dichloro-4[[6-oxo-1-[4-(trifluoromethoxy)benzyl]-1,6-dihydropyridin-3-yl]oxy]phenyl]-3,5-dioxo-1,2,4-triazine-6-carbonitrile]
9 | 20 nM | 600 nM | N#Cc1nn(-c2cc(Cl)c(Oc3ccc(=O)n(Cc4ccc(F)cc4)c3)c(Cl)c2)c(=O)[nH]c1=O [Example 13, 2-[3,5-dichloro-4-[[1-(4-fluorobenzyl)-6-oxo-1,6-dihydropyridin-3-yl]oxy]phenyl]-3,5-dioxo-1,2,4-triazine-6-carbonitrile]
10 | 350 nM | 5740 nM | N#Cc1nn(-c2cc(Cl)c(Oc3ccc(=O)n(Cc4cccc(C(F)(F)F)c4)c3)c(Cl)c2)c(=O)[nH]c1=O [Example 14, 2-[3,5-dichloro-4-[[6-oxo-1-[3-(trifluoromethyl)benzyl]-1,6-dihydropyridin-3-yl]oxy]phenyl]-3,5-dioxo-1,2,4-triazine-6-carbonitrile]
11 | 86 nM | 1350 nM | COCCn1cc(Oc2c(Cl)cc(-n3nc(C#N)c(=O)[nH]c3=O)cc2Cl)ccc1=O [Example 18, 2-[3,5-dichloro-4-[[1-(2-methoxyethyl)-6-oxo-1,6-dihydropyridin-3-yl]oxy]phenyl]-3,5-dioxo-1,2,4-triazine-6-carbonitrile]
12 | > 10000 nM | > 100000 nM | CCOC(=O)Cn1nc(Oc2c(Cl)cc(-n3nc(C#N)c(=O)[nH]c3=O)cc2Cl)ccc1=O [Example 19, Ethyl 2-[3-[2,6-dichloro-4-(6-cyano-3,5-dioxo-1,2,4-triazin-2-yl)phenoxy]-6-oxy-pyridazine-1(6H)-yl] acetate]
13 | 7370 nM | > 100000 nM | N#Cc1nn(-c2cc(Cl)c(Oc3cnc(=O)n(Cc4ccc(F)cc4)c3)c(Cl)c2)c(=O)[nH]c1=O [Example 20, 2-[3,5-dichloro-4-[1-(4-fluorobenzyl)-2-oxo-1,2-dihydropyrimidin-5-yl]oxy-phenyl]-3,5-dioxo-1,2,4-triazine-6-carbonitrile]
14 | 690 nM | > 100000 nM | COc1cccc(Cn2cc(Oc3c(Cl)cc(-n4nc(C#N)c(=O)[nH]c4=O)cc3Cl)ccc2=O)c1 [Example 22, 2-[3,5-dichloro-4-[[1-[(3-methoxyphenyl)methyl]-6-oxopyridin-3-yl]oxy]phenyl]-3,5-dioxo-1,2,4-triazine-6-carbonitrile]
15 | 60 nM | 3000 nM | Cc1ccc(Cn2cc(Oc3c(Cl)cc(-n4nc(C#N)c(=O)[nH]c4=O)cc3Cl)ccc2=O)cc1 [Example 23, 2-[3,5-dichloro-4-[[1-(4-methylbenzyl)-6-oxo-1,6-dihydropyridin-3-yl]oxy]phenyl]-3,5-dioxo-1,2,4-triazine-6-carbonitrile]
16 | 20 nM | 570 nM | CCOC(=O)C(C)n1cc(Oc2c(Cl)cc(-n3nc(C#N)c(=O)[nH]c3=O)cc2Cl)ccc1=O (centres unmarked) [Example 24, Ethyl 2-(5-(2,6-dichloro-4-(6-cyano-3,5-dioxo-1,2,4-triazin-2-yl)phenoxy)-2-oxypyridine-1(2H)-yl)propionate]
17 | 140 nM | 6660 nM | N#Cc1nn(-c2cc(Cl)c(Oc3ccc(=O)n(CC4CCOCC4)c3)c(Cl)c2)c(=O)[nH]c1=O [Example 25, 2-[3,5-dichloro-4-[[6-oxo-1-((tetrahydropyran-4-yl)methyl)-1,6-dihydropyridin-3-yl]oxy]phenyl]-3,5-dioxo-1,2,4-triazine-6-carbonitrile]
18 | 1490 nM | > 100000 nM | CCOC(=O)c1nn(-c2cc(Cl)c(Oc3ccc(=O)n(Cc4ccccc4)c3)c(Cl)c2)c(=O)[nH]c1=O [Example 27, Ethyl 2-(4-((1-benzyl-6-oxo-1,6-dihydropyridin-3-yl)oxy)-3,5-dichlorophenyl)-3,5-dioxo-1,2,4-triazine-6-carboxylate]
19 | 3760 nM | > 100000 nM | NC(=O)c1nn(-c2cc(Cl)c(Oc3ccc(=O)n(Cc4ccccc4)c3)c(Cl)c2)c(=O)[nH]c1=O [Example 30, 2-(4-((1-benzyl-6-oxo-1,6-dihydropyridin-3-yl)oxy)-3,5-dichlorophenyl)-3,5-dioxo-2,3,4,5-tetrahydro-1,2,4-triazine-6-carboxamide]
20 | 94 nM | 4400 nM | COc1ccc(Cn2cc(Oc3c(Cl)cc(-n4nc(C#N)c(=O)[nH]c4=O)cc3Cl)ccc2=O)cc1 [Example 31, 2-(3,5-dichloro-4-((1-(4-methoxybenzyl)-6-oxo-1,6-dihydropyridin-3-yl)oxy)phenyl)-3,5-dioxo-2,3,4,5-tetrahydro-1,2,4-triazine-6-carbonitrile]
21 | 1520 nM | 22700 nM | N#Cc1nn(-c2cc(Cl)c(Oc3ccc(=O)n(CCO)c3)c(Cl)c2)c(=O)[nH]c1=O [Example 32, 2-(3,5-dichloro-4-((1-(2-hydroxyethyl)-6-oxo-1,6-dihydropyridin-3-yl)oxy)phenyl)-3,5-dioxo-2,3,4,5-tetrahydro-1,2,4-triazine-6-carbonitrile]
22 | 231 nM | 3230 nM | O=c1[nH]c(=O)n(-c2cc(Cl)c(Oc3ccc(=O)n(Cc4ccccc4)c3)c(Cl)c2)nc1CO [Example 33, 2-(4-((1-benzyl-6-oxo-1,6-dihydropyridin-3-yl)oxy)-3,5-dichlorophenyl)-6-(hydroxymethyl)-1,2,4-triazine-3,5(2H,4H)-dione]
23 | 367 nM | 7310 nM | Cc1cc(-n2nc(C#N)c(=O)[nH]c2=O)cc(C)c1Oc1ccc(=O)n(Cc2ccccc2)c1 [Example 34, 2-(4-((1-benzyl-6-oxo-1,6-dihydropyridin-3-yl)oxy)-3,5-dimethylphenyl)-3,5-dioxo-2,3,4,5-tetrahydro-1,2,4-triazine-6-carbonitrile]
24 | 17 nM | 473 nM | N#Cc1nn(-c2cc(Br)c(Oc3ccc(=O)n(Cc4ccccc4)c3)c(Br)c2)c(=O)[nH]c1=O [Example 35, 2-(4-((1-benzyl-6-oxo-1,6-dihydropyridin-3-yl)oxy)-3,5-dibromophenyl)-3,5-dioxo-2,3,4,5-tetrahydro-1,2,4-triazine-6-carbonitrile]

Row | SMILES | EC50 (TRβ) | EC50 (TRα)
25 | CCOC(=O)Cn1cc(Oc2c(Cl)cc(-n3nc(C#N)c(=O)[nH]c3=O)cc2Cl)ccc1=O [Example 17, Ethyl 2-[5-[2,6-dichloro-4-(6-cyano-3,5-dioxo-1,2,4-triazin-2-yl)phenoxy]-2-oxy-pyridine-1(2H)-yl] acetate] | 350 nM | 15400 nM
